Earlier results in PMC9054096 (RSC Advances, 2020).

Tests used:
[1] = molecular target: Human galectin-1 (Homo sapiens, UniProt P09382); details: read-out: Galectin-1 affinity (Kd); reference compound
[2] = molecular target: Human galectin-3 (Homo sapiens, UniProt P17931); details: read-out: Galectin-3 affinity (Kd); reference compound
[3] = molecular target: T1, Human galectin-4C (Homo sapiens, UniProt P56470); details: read-out: Galectin-4C affinity (Kd); reference compound
T1 sequence (P56470 194-323 limits assumed): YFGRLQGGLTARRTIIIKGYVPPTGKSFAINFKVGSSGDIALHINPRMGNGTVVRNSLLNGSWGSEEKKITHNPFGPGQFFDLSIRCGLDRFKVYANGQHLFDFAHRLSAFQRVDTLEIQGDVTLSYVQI

[4] = molecular target: T2, Human galectin-4N (Homo sapiens, UniProt P56470); details: read-out: Galectin-4N affinity (Kd); reference compound
T2 sequence (P56470 19-150 limits assumed): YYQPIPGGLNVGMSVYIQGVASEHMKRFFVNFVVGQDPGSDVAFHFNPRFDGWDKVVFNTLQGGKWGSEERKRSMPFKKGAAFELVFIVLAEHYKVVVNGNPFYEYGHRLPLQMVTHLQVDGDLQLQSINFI

[5] = molecular target: Human galectin-9C (Homo sapiens, UniProt O00182); details: read-out: Galectin-9C affinity (Kd); reference compound
[6] = molecular target: Human galectin-9N (Homo sapiens, UniProt O00182); details: read-out: Galectin-9N affinity (Kd); reference compound
Human galectin-9N, sequence (O00182 17-148 limits assumed): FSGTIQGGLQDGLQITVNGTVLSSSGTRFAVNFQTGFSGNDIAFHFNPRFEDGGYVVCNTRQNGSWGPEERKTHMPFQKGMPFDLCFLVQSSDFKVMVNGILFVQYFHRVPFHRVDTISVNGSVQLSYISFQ

Human galectin-9C, sequence (O00182 227-355 limits assumed): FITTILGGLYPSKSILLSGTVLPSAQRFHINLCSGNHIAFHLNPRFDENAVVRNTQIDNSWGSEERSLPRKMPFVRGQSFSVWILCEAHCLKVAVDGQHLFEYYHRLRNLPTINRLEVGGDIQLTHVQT
Human galectin-1, sequence (P09382 whole entry): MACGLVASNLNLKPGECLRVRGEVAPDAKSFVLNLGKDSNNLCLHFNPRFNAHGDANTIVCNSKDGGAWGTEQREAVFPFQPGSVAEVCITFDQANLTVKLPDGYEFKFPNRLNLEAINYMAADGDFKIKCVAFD
Human galectin-3, sequence (P17931 whole entry): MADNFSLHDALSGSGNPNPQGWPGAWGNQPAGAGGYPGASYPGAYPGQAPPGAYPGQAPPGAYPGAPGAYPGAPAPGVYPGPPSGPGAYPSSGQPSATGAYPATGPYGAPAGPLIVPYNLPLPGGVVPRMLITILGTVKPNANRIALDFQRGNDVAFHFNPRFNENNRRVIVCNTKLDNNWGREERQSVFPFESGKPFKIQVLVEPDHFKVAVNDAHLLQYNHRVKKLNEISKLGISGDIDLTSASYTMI

In the case of `O=C(O)c1ccc2ccc(CO[C@@H]3[C@@H](O)[C@@H](Sc4ccc(Cl)c(Cl)c4)O[C@H](CO)[C@@H]3O)nc2c1` [Compound 2, 3,4-dichlorophenyl 3-O-(7-carboxy-quinolin-2-yl-methyl)-1-thio-α-D-galactopyranoside], the Kd [1] is given as 48 ± 4.4 µM, the Kd [2] is given as 1.27 ± 0.07 µM and the Kd [3] is given as 43 ± 5.7 µM. The Kd [4] was 43 ± 7.1 µM, the Kd [5] was 14 ± 1.3 µM and the Kd [6] was 2.06 ± 0.09 µM.
